Experimental data published in the supplement of paper PMC10307832.

What was measured:
NVP-TAE684 = compound: COc1cc(N2CCC(N3CCN(C)CC3)CC2)ccc1Nc1ncc(Cl)c(Nc2ccccc2S(=O)(=O)C(C)C)n1 [NVP-TAE684]; experiment: relative viability (nuclei count vs DMSO), 5 days (fraction); higher = more cells survive
Procedure, shortened: (§1)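 Nuclei counted with MetaXpress define viability as the ratio of treated to vehicle wells, given as a median across plates. The lung cancer cell lines were in 1536-well plates, pinned with five √10-spaced library-drug doses and imaged at 4× after 5 days and Hoechst staining. Plates passed with control CV below 25% and at least one doubling.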

Vandetanib = compound: COc1cc2/c(=N/c3ccc(Br)cc3F)nc[nH]c2cc1OCC1CCN(C)CC1 [Vandetanib]; experiment: as above
Procedure, shortened: as §1

Cell Line	relative viability (NVP-TAE684; 0.2 µM)	relative viability (NVP-TAE684; 0.6325 µM)	relative viability (NVP-TAE684; 2 µM)	relative viability (Vandetanib; 0.02 µM)	relative viability (Vandetanib; 0.06325 µM)	relative viability (Vandetanib; 0.2 µM)	relative viability (Vandetanib; 0.6325 µM)	relative viability (Vandetanib; 2 µM)
201T	1.05	0.958	0.875	0.951	0.951	1.01	0.934	0.941
A549	1.1	0.951	0.585	1	0.894	0.913	0.907	0.922
A-427	1.11	0.847	0.863	0.955	0.963	0.953	0.98	0.96
ABC-1	0.969	0.624	0.537	0.827	0.917	0.844	0.908	0.628
BEN	0.933	0.73	0.876	0.941	0.916	0.886	0.933	0.988
CAL-12T	0.904	0.956	0.466	1.07	0.909	0.954	0.885	0.729
COR-L23	0.972	1	0.481	0.974	0.93	1.02	1.08	1.06
COR-L 105	1.03	0.68	0.452	0.936	0.875	0.911	0.641	0.457
Calu-6	0.937	0.992	0.758	0.958	0.946	1.02	0.988	0.95
ChaGo-K-1	0.98	0.878	0.843	1.01	1.01	1.01	0.998	0.984
EBC-1	0.836	1.03	0.744	0.93	0.959	1.07	1.09	1.03
EKVX	0.862	0.873	0.719	1	0.928	0.925	0.773	0.608
EMC-BAC-2	0.966	0.894	0.679	1.03	0.981	0.929	1.02	0.918
EPLC-272H	0.9	0.667	0.688	0.941	0.834	0.975	0.941	0.923
H3255	0.947	0.859	0.754	0.998	0.934	0.845	0.573	0.355
HARA		0.838	0.667	1.13	0.939	0.914	0.899	0.942
HCC-15	0.913	0.973	0.808	1.01	0.919	0.982	1	1.03
HCC-44	1.09	0.969	0.749	0.939	0.965	1.02	0.998	0.966
HCC-78	0.824	0.658	0.495	1.02	0.841	0.958	0.974	0.853
HCC-366	1.01	0.979	1.07	0.966	1.01	1.03	1.01	1.02
